This passage reports IC50 results from patent publication US10639284B2, “Immunomodulator compounds” (CHEMOCENTRYX, INC., priority 2016, dated 2020).

human PD-L1 / Human PD-1, sequence (Q9NZQ7 19-239): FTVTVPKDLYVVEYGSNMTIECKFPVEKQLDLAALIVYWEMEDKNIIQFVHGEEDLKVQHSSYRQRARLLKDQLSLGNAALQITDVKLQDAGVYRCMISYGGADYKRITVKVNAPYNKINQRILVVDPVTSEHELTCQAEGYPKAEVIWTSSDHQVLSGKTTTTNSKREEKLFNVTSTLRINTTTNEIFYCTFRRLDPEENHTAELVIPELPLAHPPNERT

This assay addresses human PD-L1 / Human PD-1 (Homo sapiens (Human), UniProt Q9NZQ7). Kind of assay: Enzyme-Linked Immunosorbent Assay (ELISA), PD-1/PD-L1 binding. The conditions noted are these: Table 3; plate-coated human PD-L1, biotinylated human PD-1; read-out: ELISA IC50. The gist of the method: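 Human PD-L1 coated at 1 μg/mL overnight at 4° C; samples diluted 1:5 and incubated with human PD-1 and biotin (0.3 μg/mL) for 1 h at 37° C. Bound PD-1 detected with streptavidin-HRP and TMB (20 min, 37° C), acid-stopped, absorbance at 450 nm.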
For orientation: ELISA stands for enzyme-linked immunosorbent assay.
Turning to `N#Cc1cncc(COc2cc(O[C@H]3CCc4c(-c5cc(F)c6c(c5)OCCO6)cccc43)c(Cl)cc2CN[C@@H](CO)C(=O)O)c1` [Example 3.017], the IC50 (usually the concentration at which inhibition is half-maximal) is less than 100 nM.

In the case of `N#Cc1cncc(COc2cc(O[C@H]3CCc4c(-c5ccccc5F)cccc43)c(Cl)cc2CN[C@@H]2CCC[C@H]2O)c1` [Example 3.018], the IC50 was less than 100 nM.

On to `N#Cc1cncc(COc2cc(O[C@H]3CCc4c(-c5ccccc5F)cccc43)c(Cl)cc2CN[C@H]2CCC[C@@H]2O)c1` [Example 3.019], for which the concentration for half-maximal inhibition (IC50) is less than 100 nM.

As to `N#Cc1cc(COc2cc(O[C@H]3CCc4c(-c5cccc(O)c5F)cccc43)c(Cl)cc2CN[C@@H](CO)C(=O)O)cc(NC=O)c1` [Example 3.020], the half-inhibitory concentration (IC50) was less than 100 nM.

Take `N#Cc1cncc(COc2cc(O[C@H]3CCc4c(-c5ccccc5F)cccc43)c(Cl)cc2CN[C@H]2CCCC[C@@H]2O)c1` [Example 3.021]: the IC50 was less than 100 nM.

Turning to `N#Cc1cc(C#N)cc(COc2cc(O[C@H]3CCc4c(-c5ccccc5)cccc43)c(Cl)cc2CN[C@@H](CO)C(=O)O)c1` [Example 3.022], the IC50 was less than 100 nM.

Regarding `NCCCC[C@H](NCc1cc(Cl)c(O[C@H]2CCc3c(-c4ccccc4F)cccc32)cc1OCc1cncc(C(=O)O)c1)C(=O)O` [Example 3.023], the IC50 was in the range of 100 to 500 nM.

Take `N#Cc1cncc(COc2cc(O[C@H]3CCc4c(-c5ccccc5F)cccc43)c(Cl)cc2CN[C@@H](CO)C(=O)O)c1` [Example 3.024]: the IC50 was less than 100 nM.

Regarding `Cc1cncc(COc2cc(O[C@H]3CCc4c(-c5ccc6c(c5F)OCCO6)cccc43)c(Cl)cc2CN[C@@H](CO)C(=O)O)c1` [Example 3.025], the IC50 is less than 100 nM.

Take `N#Cc1ccnc(COc2cc(O[C@H]3CCc4c(-c5ccc6c(c5F)OCCO6)cccc43)c(Cl)cc2CN[C@@H](CO)C(=O)O)c1` [Example 3.026]: the IC50 is less than 100 nM.

For the compound `O=C(O)[C@H](CO)NCc1cc(Cl)c(O[C@H]2CCc3c(-c4ccc5c(c4F)OCCO5)cccc32)cc1OCc1cncc(Cl)c1` [Example 3.027], the IC50 is less than 100 nM.

`N#Cc1cncc(COc2cc(O[C@H]3CCc4c(Br)cccc43)c(Cl)cc2CN[C@@H](CO)C(=O)O)c1` [Example 3.028]: the concentration for half-maximal inhibition (IC50) lay within 500 to 20000 nM.

`O=C(O)c1cncc(COc2cc(O[C@H]3CCc4c(-c5ccccc5F)cccc43)c(Cl)cc2CN[C@@H](CO)C(=O)O)c1` [Example 3.029]: the IC50 is 100 to 500 nM.

In the case of `O=C(O)c1cncc(COc2cc(O[C@H]3CCc4c(-c5ccc6c(c5F)OCCO6)cccc43)c(Cl)cc2CN[C@@H](CO)C(=O)O)c1` [Example 3.030], the IC50 lay within 100 to 500 nM.

Take `CCOC(=O)[C@](C)(CO)NCc1cc(Cl)c(O[C@H]2CCc3c(-c4ccc5c(c4F)OCCO5)cccc32)cc1OCc1cncc(C#N)c1` [Example 3.031]: the IC50 lay in the range of 100 to 500 nM.

Consider `N#Cc1cncc(COc2cc(O[C@H]3CCc4c(-c5ccccc5F)cccc43)c(Cl)cc2CN[C@@H]2CCCC[C@@H]2O)c1` [Example 3.032], for which the IC50 is less than 100 nM.

Consider `N#Cc1cncc(COc2cc(O[C@H]3CCc4c(-c5ccc6c(c5F)OCCO6)cccc43)c(Cl)cc2CN[C@@H]2CCC[C@H]2O)c1` [Example 3.033], for which the IC50 is less than 100 nM.

With `N#Cc1cncc(COc2cc(O[C@H]3CCc4c(-c5ccc6c(c5F)OCCO6)cccc43)c(Cl)cc2CN[C@@H](CCO)C(=O)O)c1` [Example 3.034], the IC50 was less than 100 nM.

As for `COC(=O)[C@](C)(CO)NCc1cc(Cl)c(O[C@H]2CCc3c(-c4ccc5c(c4F)OCCO5)cccc32)cc1OCc1cncc(C#N)c1` [Example 3.035], the IC50 was in the range of 100 to 500 nM.

Regarding `N#Cc1cncc(COc2cc(O[C@H]3CCc4c(-c5ccc6c(c5F)OCCO6)cccc43)c(Cl)cc2CN[C@H]2CCCC[C@@H]2C(=O)O)c1` [Example 3.036], the IC50 is 100 to 500 nM.

As for `N#Cc1cncc(COc2cc(O[C@H]3CCc4c(-c5ccccc5F)cccc43)c(Cl)cc2CN[C@@H]2CCOC[C@H]2O)c1` [Example 3.037], the IC50 was less than 100 nM.

For `N#Cc1cncc(COc2cc(O[C@H]3CCc4c(-c5ccccc5F)cccc43)c(Cl)cc2CN[C@@H]2COC[C@H]2O)c1` [Example 3.039], the IC50 was less than 100 nM.

Take `N#Cc1cncc(COc2cc(O[C@H]3CCc4c(-c5ccccc5F)cccc43)c(Cl)cc2CN[C@H]2CCC[C@H](O)C2)c1` [Example 3.040]: the IC50 was less than 100 nM.

Regarding `N#Cc1cncc(COc2cc(O[C@H]3CCc4c(-c5ccc6c(c5F)OCCO6)cccc43)c(Cl)cc2CN[C@H]2CONC2=O)c1` [Example 3.042], the IC50 lay within 500 to 20000 nM.

For the compound `N#Cc1cncc(COc2cc(O[C@H]3CCc4c(-c5ccccc5F)cccc43)c(Cl)cc2CN[C@@H](CO)C(=O)NCC(=O)NCC(=O)O)c1` [Example 3.043], the IC50 was less than 100 nM.

Turning to `N#Cc1cncc(COc2cc(O[C@H]3CCc4c(-c5ccccc5F)cccc43)c(Cl)cc2CN[C@@H](CO)C(=O)NCC(=O)O)c1` [Example 3.044], the IC50 is less than 100 nM.

`CC(C)OC(=O)[C@@H](NCc1cc(Cl)c(O[C@H]2CCc3c(-c4ccc5c(c4F)OCCO5)cccc32)cc1OCc1cncc(C#N)c1)[C@@H](C)O` [Example 3.045]: the IC50 fell in the range of 500 to 20000 nM.

For `CC(C)OC(=O)[C@H](CO)NCc1cc(Cl)c(O[C@H]2CCc3c(-c4ccc5c(c4F)OCCO5)cccc32)cc1OCc1cncc(C#N)c1` [Example 3.046], the IC50 is 500 to 20000 nM.

`C[C@H](NCc1cc(Cl)c(O[C@H]2CCc3c(-c4ccccc4F)cccc32)cc1OCc1cncc(C#N)c1)C(=O)N[C@@H](CO)C(=O)O` [Example 3.047]: the IC50 is less than 100 nM.

For `N#Cc1cncc(COc2cc(O[C@H]3CCc4c(-c5ccccc5F)cccc43)c(Cl)cc2CN[C@@H](CO)C(=O)N[C@@H](CO)C(=O)N[C@@H](CO)C(=O)O)c1` [Example 3.048], the IC50 is less than 100 nM.

As for `C[C@H](NC(=O)[C@H](CO)NCc1cc(Cl)c(O[C@H]2CCc3c(-c4ccccc4F)cccc32)cc1OCc1cncc(C#N)c1)C(=O)O` [Example 3.049], the IC50 is less than 100 nM.

For `N#Cc1cncc(COc2cc(O[C@H]3CCc4c(-c5ccccc5F)cccc43)c(Cl)cc2CNCC(=O)N[C@@H](CO)C(=O)O)c1` [Example 3.050], the IC50 is 100 to 500 nM.

`N#Cc1cncc(COc2cc(O[C@H]3CCc4c(-c5ccccc5F)cccc43)c(Cl)cc2CNCCCN2CCS(=O)(=O)CC2)c1` [Example 3.051]: the IC50 was in the range of 100 to 500 nM.

With `CC(Cc1ccccn1)NCc1cc(Cl)c(O[C@H]2CCc3c(-c4ccccc4F)cccc32)cc1OCc1cncc(C#N)c1` (stereo partly drawn) [Example 3.052], the IC50 lay within 100 to 500 nM.

Regarding `C[C@@H](O)[C@H](NCc1cc(Cl)c(O[C@H]2CCc3c(-c4ccc5c(c4F)OCCO5)cccc32)cc1OCc1cncc(C#N)c1)C(=O)O` [Example 3.053], the IC50 is less than 100 nM.

On to `N#Cc1cncc(COc2cc(O[C@H]3CCc4c(-c5ccc6c(c5F)OCCO6)cccc43)c(Cl)cc2CN[C@H](CO)C(=O)O)c1` [Example 3.054], for which the IC50 is less than 100 nM.

In the case of `Cc1cc(C#N)cc(COc2cc(O[C@H]3CCc4c(-c5ccccc5F)cccc43)c(Cl)cc2CN[C@@H](CO)C(=O)O)c1` [Example 3.055], the IC50 lay within 100 to 500 nM.

On to `N#Cc1cncc(COc2cc(O[C@H]3CCc4c(-c5ccccc5F)cccc43)c(Cl)cc2CN[C@@H](Cc2c[nH]cn2)C(=O)NCC(=O)NCC(=O)O)c1` [Example 3.056], for which the IC50 is 500 to 20000 nM.

Take `N#Cc1cncc(COc2cc(O[C@H]3CCc4c(-c5ccc6c(c5F)OCCO6)cccc43)c(Cl)cc2CNC(CO)(CO)CO)c1` [Example 3.057]: the IC50 is less than 100 nM.
